# Assay results reported in BindingDB's records for doi:10.1111/cbdd.12463 (University of California San Diego, 2015).
# Biological target: T1, Decaprenyl diphosphate synthase (Mycobacterium tuberculosis (strain CDC 1551 / Oshkosh), UniProt P9WFF6)
# T1 sequence (P9WFF6 whole entry): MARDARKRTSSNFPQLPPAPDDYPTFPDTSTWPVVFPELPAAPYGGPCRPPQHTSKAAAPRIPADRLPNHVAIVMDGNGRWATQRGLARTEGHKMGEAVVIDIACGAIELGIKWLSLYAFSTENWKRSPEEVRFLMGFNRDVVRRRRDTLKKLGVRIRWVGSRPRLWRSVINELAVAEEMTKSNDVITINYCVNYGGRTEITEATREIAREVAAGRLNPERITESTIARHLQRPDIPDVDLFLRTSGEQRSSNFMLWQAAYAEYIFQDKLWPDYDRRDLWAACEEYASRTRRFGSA
# Experiment: DPPS Inhibition (GPP based) Assay
# Conditions: pH 7.5
# From the text: We screened an in-house library of 43 compounds using GPP as substrate.
row,SMILES,IC50 [µM]
1,O=C(/C=C/c1ccc(O)c(O)c1)OC1CC(O)(C(=O)O)CC(O)C1O (stereo not given) [BPH-1068],2.3
2,"NC(=O)c1cc(NC(=O)c2ccc(C(=O)Nc3cc(C(N)=O)cc(C4=NCCN4)c3)cc2)cc(C2=NCCN2)c1 [100873, 18]",8.4
3,C=CCC(/C=C/C(=O)Nc1ccc(F)cc1C(=O)O)OCCCCCCCC (stereo not given) [BPH-1463],0.031
4,CCCCCCCCCCOc1cccc(C(=O)Nc2ccc(S(N)(=O)=O)cc2C(=O)O)c1 [BPH-1256],0.041
5,CCCCCCCCOc1ccc(F)c(C(=O)Nc2ccc(F)cc2C(=O)O)c1 [BPH-1485],0.308
6,CCCCCCCCOc1cccc(C(=O)Nc2cc(F)c(F)cc2C(=O)O)c1 [BPH-1455],0.279
7,CCCCCCOc1ccc(C(=O)/C=C(\O)C(=O)O)cc1 [BPH-1378],10
8,CCCCCCCCCCOc1cc(C(=O)Nc2ccc(S(N)(=O)=O)cc2C(=O)O)cc(C(=O)OC)c1 [BPH-1257],1.1
9,O=P(O)(O)C(O)(Cc1cccc(-c2cccc(NS(=O)(=O)c3cccc(S(=O)(=O)Nc4cccc(-c5cccc(CC(O)(P(=O)(O)O)P(=O)(O)O)c5)c4)c3)c2)c1)P(=O)(O)O [BPH-789],0.36
10,CCCCCCCCCCOc1cccc(COc2ccccc2C(=O)O)c1 [BPH-1150],0.7
11,CCCCCCC1=C(C[N+](C)(C)C)C(=O)c2ccccc2C1=O [BPH-1474],7
12,CCCCCCCCOc1ccc(C(=O)/C=C(\O)C(=O)O)cc1 [BPH-1330],20
13,CCCCCCCCOc1cccc(C(=O)Nc2cccc(P(=O)(O)O)c2)c1 [BPH-1432],0.21
14,NCCc1cccc(C#Cc2ccc(C#Cc3cccc(CCN)c3)cc2)c1 [BPH-1427],3.2
15,CCn1c2ccccc2c2cc(NC(=O)/C=C(\O)C(=O)O)ccc21 [BPH-1149],2
16,CCCCCCCCOc1cccc(C(=O)Nc2ccc(Cl)cc2C(=O)O)c1 [BPH-1466],0.156
17,CCCCCCCCCCCCCCOc1cc([N+](=O)[O-])ccc1C(=O)O [BPH-965],1
18,CCCCCCCCCCCCOc1cccc(O)c1C(=O)O [BPH-1065],4.5
19,CC(C)=CCC/C(C)=C/COc1ccc(C(=O)/C=C(\O)C(=O)O)cc1 [BPH-1379],4.1
20,C/C=C\C(=C/CC(=O)Nc1ccc(OC(F)(F)F)cc1C(=O)O)OCCCCCCCC [BPH-1477],0.043
21,CCCCCCCCOc1cccc(C(=O)Nc2ccccc2P(=O)(O)O)c1 [BPH-1440],0.76
22,CCCCCCCCOc1cccc(P(=O)(CC(=O)C(=O)O)OCC)c1 (stereo not given) [BPH-1389],2.6
23,CCCCCCCCOc1cccc(CNC(=O)/C=C(\O)C(=O)O)c1 [BPH-1305],6.3
24,CCCCCCCCOc1cccc(C(=O)N(C)c2cccc(P(=O)(O)O)c2)c1 [BPH-1433],0.49
25,CCCCCCCOc1cccc(C(=O)Nc2ccccc2C(=O)O)c1 [BPH-1167],0.133
26,O=C(Nc1ccc(CCC2=NCCN2)cc1)c1ccc(C(=O)Nc2ccc(CCC3=NCCN3)cc2)cc1 [BPH-1413],5.8
27,NCCc1cc(Br)cc(C#Cc2ccc(C#Cc3cc(Br)cc(CCN)c3)cc2)c1 [BPH-1419],0.57
28,CCCCCCCCCCOc1cccc(COc2ccc(S(=O)(=O)N3CCN(C(C)=O)CC3)cc2C(=O)O)c1 [BPH-1165],3
29,CCCCCCCCOc1cccc(C(=O)Nc2cc(S(C)(=O)=O)ccc2C(=O)O)c1 [BPH-1467],0.138
30,CCCCCCCCCCCCCCSc1ccccc1C(=O)O [BPH-948],0.036

# Biological target: T1, Decaprenyl diphosphate synthase
# Experiment: DPPS Inhibition (cis FPP based) Assay
# Conditions: pH 7.5
# From the text: We screened an in-house library of 19 compounds using cis-FPP as substrate.
row,SMILES,IC50 [µM]
1,C=CCC(/C=C/C(=O)Nc1ccc(F)cc1C(=O)O)OCCCCCCCC (stereo not given) [BPH-1463],90
2,CCCCCCCCOc1cccc(CO/C=C/C=C(\C=C\C(=O)O)S(=O)(=O)N(C)C)c1 [BPH-1152],83
3,CCCCCCCCOc1cccc(C(=O)Nc2ccc(S(N)(=O)=O)cc2C(=O)O)c1 [BPH-1255],65
4,CCCCCCCCOc1ccc(F)c(C(=O)Nc2ccc(F)cc2C(=O)O)c1 [BPH-1485],20
5,Cc1ccc(S(=O)(=O)N2CCN(c3ccc(C(=O)/C=C(\O)C(=O)O)cc3)CC2)cc1 [BPH-1380],20
6,CCCCCCCCCCOc1cccc(COc2ccccc2P(=O)(O)O)c1 [BPH-1159],55
7,O=C(O)/C(O)=C/C(=O)c1ccc(N2CCN(C(=O)c3cccc(-c4ccccc4)c3)CC2)cc1 [BPH-1381],15
8,CCCCCCCCCCCCCCCn1cc[n+](CC(O)(P(=O)(O)O)P(=O)(O)O)c1 [BPH-1325],36
9,CCCCCCCCOc1ccc(C(=O)CSCC(=O)O)cc1 [BPH-1391],82
10,CCCCCCCCCCOc1cccc(CSc2ccccc2C(=O)O)c1 [BPH-1102],19

# Biological target: T1, Decaprenyl diphosphate synthase
# Experiment: DPPS Inhibition (trans FPP based) Assay
# Conditions: pH 7.5
# From the text: We screened an in-house library of 53 compounds using trans-FPP as substrate.
row,SMILES,IC50 [µM]
1,O=P(O)(O)C(O)(Cc1ccc(-c2cccc(-c3ccccc3)c2)cc1)P(=O)(O)O [BPH-625],291
2,CCCCCCCCCCCCOc1ccc[n+](CC(P(=O)(O)O)P(=O)(O)O)c1 [BPH-716],77
3,O=P(O)(O)C(O)(Cc1cccc(-c2cccc(NS(=O)(=O)c3cccc(S(=O)(=O)Nc4cccc(-c5cccc(CC(O)(P(=O)(O)O)P(=O)(O)O)c5)c4)c3)c2)c1)P(=O)(O)O [BPH-789],5.4
4,O=P(O)(O)[C@@H](CCCc1cccc(Oc2ccccc2)c1)S(=O)(=O)O [BPH-652],113
5,O=P(O)(O)C(C[n+]1ccc(-c2cccc3c2oc2ccccc23)cc1)P(=O)(O)O [BPH-642],114
6,O=P(O)(O)C(O)(CCc1cccc(-c2cccc(-c3ccccc3)c2)c1)P(=O)(O)O [BPH-622],55
7,O=C(c1ccccc1)c1ccc(OCCCCCC[n+]2ccccc2)cc1 [BPH-921],880
8,O=P(O)(O)C(O)(Cc1cccc(-c2ccccc2)c1)P(=O)(O)O [BPH-294],7.5
9,O=P(O)(O)C(O)(Cc1cccc(-c2cccc(-c3ccccc3)c2)c1)P(=O)(O)O [{1-hydroxy-2-[3-(3-phenylphenyl)phenyl]-1-phosphonoethyl}phosphonic acid],18
10,"O=P(O)(O)C(CNc1cccc(-c2ccccc2)c1)P(=O)(O)O [2-(biphenyl-3-ylamino)ethane-1,1-diyldiphosphonic acid]",17
11,O=P(O)(O)C(O)(Cc1ccc(-c2cccc(NS(=O)(=O)c3ccc(-c4ccccc4)cc3)c2)cc1)P(=O)(O)O [BPH-781],66
12,O=P(O)(O)C(O)(CCc1cccc(-c2ccccc2-c2ccccc2)c1)P(=O)(O)O [BPH-621],30
13,O=P(O)([CH2][Na])C(O)(Cc1ccc(-c2ccccc2)cc1)P(=O)(O)[CH2][Na] (stereo not given) [BPH-310],8.8
14,O=P(O)(O)C(O)(c1ccc(-c2ccccc2)cc1)P(=O)(O)O [(Biphenyl-4-yl-hydroxy-phosphono-methyl)-phosphonic acid],17
15,O=P(O)(O)C(Nc1ccc(-c2ccccc2)cc1)P(=O)(O)O [(biphenyl-4-ylamino)methylenediphosphonic acid],4.6
16,O=P(O)(O)C(O)(Cc1cccc(-c2ccc(-c3ccccc3)cc2)c1)P(=O)(O)O [{1-hydroxy-2-[3-(4-phenylphenyl)phenyl]-1-phosphonoethyl}phosphonic acid],31
17,O=P(O)(O)C(Nc1cccc(-c2ccccc2)c1)P(=O)(O)O [[(Biphenyl-3-ylamino)-phosphono-methyl]-phosphonic acid],6.3
18,O=P(O)(O)C(O)(Cc1cccc(-c2cc(F)cc(F)c2)c1)P(=O)(O)O [BPH-309],1.7

row,SMILES,IC50 [µM]
1,O=P(O)(O)C(O)(Cc1cccc(-c2cccc(NS(=O)(=O)c3ccc(-c4ccccc4)cc3)c2)c1)P(=O)(O)O [BPH-782],23
2,O=P(O)(O)C(O)(Cc1ccc(-c2ccccc2-c2ccccc2)cc1)P(=O)(O)O [BPH-624],5.4
3,"C=CC/C=C\C/C=C\CCCCCCCc1cccc(O)c1C(=O)O [6-[8(Z),11(Z),14-pentadecatrienyl]salicylic acid]",280
4,"CCCCCCCCCCCCNCC(P(=O)(O)O)P(=O)(O)O [1-[(n-Dodec-1-ylamino)ethyl]1,1-bisphosphonic acid]",370
5,O=P(O)(O)C(O)(c1cccc(-c2ccccc2)c1)P(=O)(O)O [(biphenyl-3-yl-hydroxy-phosphono-methyl)-phosphonic acid],40
6,CCCCCCCCCCCCSc1ccccc1C(=O)O [BPH-940],127
7,O=P(O)(O)C(C[n+]1ccc(-c2ccc(-c3ccccc3)cc2)cc1)P(=O)(O)O [BPH-632],498
8,O=P(O)(O)C(O)(CCc1ccc(-c2ccccc2)cc1)P(=O)(O)O [BPH-665],13
9,O=P(O)(O)C(O)(Cc1ccc(-c2ccc(Cl)cc2)cc1)P(=O)(O)O [[2-(4'-Chloro-biphenyl-4-yl)-1-hydroxy-1-phosphono-ethyl]-phosphonic acid],1.5
10,"O=P(O)(O)C(O)(Cc1cccc(-c2ccc(F)cc2F)c1)P(=O)(O)O [[2-(2',4'-Difluoro-biphenyl-3-yl)-1-hydroxy-1-phosphono-ethyl]-phosphonic acid]",4.3
11,O=P(O)(O)C(O)(CCc1cccc(-c2cccc3c2oc2ccccc23)c1)P(=O)(O)O [BPH-646],363
12,CCCCCCCCc1cc[n+](CC(P(=O)(O)O)P(=O)(O)O)cc1 [BPH-717],113
13,O=P(O)(O)C(CCCc1ccc(-c2ccccc2)cc1)P(=O)(O)O [(4-Biphenyl-4-yl-1-phosphono-butyl)-phosphonic acid],1.6
14,O=P(O)(O)C(O)(Cc1cccc(-c2cccc(NS(=O)(=O)c3ccc4ccccc4c3)c2)c1)P(=O)(O)O [(1-hydroxy-2-{3-[3-(naphthalene-2-sulfonamido)phenyl]phenyl}-1-phosphonoethyl)phosphonic acid],8.2
15,O=P(O)(O)C(O)(Cc1ccc(-c2ccc(-c3ccccc3)cc2)cc1)P(=O)(O)O [BPH-626],51
16,O=P(O)(O)C(O)(Cc1ccc(-c2cccc(NS(=O)(=O)c3ccc4ccccc4c3)c2)cc1)P(=O)(O)O [BPH-780],3.8
17,C=CCN(C)CCCCCCCCCCCCCCCC(=O)OC [BPH-922],620
